Data reported in US6384056B1, “Heterocyclic thioesters or ketones for vision and memory disorders” (GPI NIL Holdings, Inc., priority 1998, dated 2002).
Marks after values point to notes of the source that are not given here.

Key:
retina = assay: streptozotocin induced diabetes: retinal neovascularization and neuronal loss; format: in vivo; conditions: 28 day treatment beginning 8 weeks after onset of streptozotocin induced diabetes
[1] = system: retinal ganglion cells and optic nerve axons; assay: optic nerve transection: retinal ganglion cell survival, optic nerve axon preservation and myelination 90 days after transection; format: in vivo, rat; conditions: for RGC Counts: mean density + SEM of Fluoro-gold labeled RGC in 400 μm × 400 μm gridfields; for ON Axon density: RT97 labeled axons in 200 μm × 200 μm region, mean + SEM; for Proximal optic nerve myelin basic protein Density: % areal coverage of optic nerve cross section, ± SEM; for increased ON axon density: adjusted for optic nerve diameter; for ON axon Count: calculated by multiplying axonal density by ON area; for Distal optic nerve myelin basic protein Density (myelin level): cross sectional area multiplied by myelin density
Text: All eyes and optic nerves stumps were removed.

aged mice = assay: Morris watermaze spatial learning and memory in aged rodents; format: in vivo, mouse; conditions: aged impaired C57BL/6N-Nia mice, 10 mg/kg daily, retention testing after 3 weeks of dosing
Text: The Morris watermaze is widely used for assessing spatial memory formation and retention in experimental animals. The test depends on the animal's ability to utilize spatial visual information in order to locate a submerged escape platform in a water tank. It is important that the tank itself be as devoid of specific visual features as possible-thus, it is always circular in shape, the sides are kept smooth and in uniform dull colors, and the water is rendered opaque with nontoxic watercolor pigment or powdered milk. This is to ensure that the animal navigates only by the use of more distant visual cues, or by the use of intra-maze cues specifically provided by the experimenter. The tank is filled to a level which forces the animal to swim actively. Normal mice and rats react […] to the swimming part of the test and will climb onto, and remain on, an escape platform from which they are removed to a heated resting cage. If the platform is visible (i.e. above the surface), animals placed in the tank will quickly learn to home in on the platform and climb out onto it. […] Swim Distances (cm) were analyzed in a 7×5 ANOVA including Groups and Blocks (1-5) as factors in the analysis, treating Blocks as a repeated measure.

[2] = system: retinal ganglion cell axons; assay: protection of retinal ganglion cell axons from degeneration 14 days after optic nerve transection (RT97); format: in vivo; conditions: ± SEM
Text: Efficacy of represetative compounds from different immunophilin ligand series in protecting retinal ganglion cell axons from degeneration following optic nerve transection set forth in Table 9.
Efficacy of representative compounds from different immunophilin ligand series in protecting retinal ganglion cell axons from degeneration following optic nerve transection

[3] = system: retinal ganglion cells and optic nerve; assay: retinal ischemia: degeneration of retinal ganglion cells, optic nerve axons and myelin; format: in vivo, rat
Text: Retinal ganglion cells were retrogradely labeled in adult rats by bilateral injection of fluorogold in their lateral geniculate nuclei. Labeled ganglion cells in the normal rat retina appear as white profiles against the dark background (FIG. 1A). Complete retinal ischemia was produced by infusing normal saline solution into the retinal vitreous cavity of each eye until the intraocular pressure exceeded arterial blood pressure. 28 days after the ischemic episode extensive degeneration of retinal ganglion cell was evidenced by massive reduction in the density of fluorogold labeled cells (FIG. 1B).

Clearance = format: in vitro ADME; conditions: Table 9 comments
[4] = system: streptozotocin-induced diabetic rat; assay: sensory neuropathy in streptozotocin-induced diabetes: hot plate and tail flick; format: in vivo; conditions: lesioned animals treated for 6 weeks at 10 mg/kg s.c., treatment started six weeks after streptozotocin
Description: The procedure involved using Male Wistar rats which were given a single injection of streptozotocin (65 mg/kg i.v.). Blood glucose levels were determined weekly for the first three weeks and on the last week of the experiment. Animals were evaluated weekly for signs of sensory neuropathy using the conventional hot plate and tail flick apparatus test procedures.

[5] = ONT/14 days GPI 1046, 90 days after transection
[6] = ONT/28 days GPI 1046, 90 days after transection
[7] = 28 days after 1 hour retinal ischemic episode, toluidine blue staining

## CCC(C)(C)C(=O)C(=O)N1CCC[C@H]1C(=O)OCCCc1cccnc1 [GPI 1046, 3-(3-pyridyl)-1-propyl (2s)-1-(3,3-dimethyl-1,2-dioxopentyl)-2-pyrrolidinecarboxylate]
retina
  neovascularization in the PR, ONL, OPL and INL: reduced neovascularization
  neuronal loss in the ONL: did not appear to protect against neuronal loss in the ONL
retina; vs streptozotocin/vehicle
  loss of neurons in the INL and GCL: appeared to decrease the loss of neurons in both the INL and GCL
[1]; Example 16: 10 mg/kg/day s.c. for 28 days, 90 days after transection, RT97
  preservation of axons of protected neurons in the proximal stump: preserved the axons of virtually all protected neurons
[1]; Example 16: 10 mg/kg/day s.c. for 28 days, sacrificed 90 days after transection
  ganglion cell population spared (perikaryal neuroprotection): 25%
[1]; GPI 1046 for the first 14 days after optic nerve transection, proximal stump, 90 days
  protection of optic nerve axons: 5.3%
[1]; ONT/14 days GPI 1046, 10 mg/kg/day sc, 90 days after transection
  RGC Counts: small but not significant increase
[1]; [5]
  % RGCs Rescued: 5.3%
  % surviving RGCs with ON axons: 33.6%
  Distal optic nerve stump shrinkage (cross sectional area vs sham): did not protect against shrinkage of the distal stump
  ON head area (% sham): 76% sham
  Spared RGC population: 20,275
  ON Axon density: 569 ± 23
[1]; ONT/14 days GPI 1046
  Proximal optic nerve myelin basic protein Density: 1.6 ± 3.0 SEM % recovery
  increased ON axon density: 1.5×
  ON axon Count: 6820
  Distal optic nerve myelin basic protein Density (myelin level): slightly increase the density of myelin
[1]; ONT/28 days GPI 1046, 10 mg/kg/day sc, 90 days after transection
  RGC Counts: 67.9 + 5.8*
[1]; [6]
  % surviving RGCs with ON axons: 81.4%
  Distal optic nerve stump shrinkage (cross sectional area vs sham): prevented cross sectional shrinkage of the distal stump
  ON head area (% sham): 95%* % sham
  Spared RGC population: 28,096*
  ON Axon density: significant increase in the density of large, and particularly medium and small caliber optic nerve axons
[1]; ONT/28 days GPI 1046
  Proximal optic nerve myelin basic protein Density: 70 ± 6.3 SEM % recovery
  increased ON axon density: 5.0×
  ON axon Count: 22,861*
  Distal optic nerve myelin basic protein Density (myelin level): 99% myelin % myelin preservation
Aged mice
  spatial memory performance (swim distance), retention testing: significantly enhanced spatial memory performance
[2]
  RT 97 + RGC axon density 14 days after ON transaction (36 ON axons rescued): 60.5% ±3.9 SEM
[3]; 10 mg/kg s.c. 1 hour prior to ischemic episode and 10 mg/kg/day for next four days, 28 days after ischemia
  protection of retinal ganglion cells (density of fluorogold labeled cells): noticeable protection of a large proportion of the vulnerable ganglion cell population
[3]; [7]
  density of degenerating myelin figures: dramatically decreased the density of degenerating myelin figures
  protection of optic nerve axons from ischemic degeneration: protected the majority of optic nerve axons from degeneration
Clearance
  Clearance: 63.8 µL/min
[4]
  latency in hot plate and tail flick tests: improvement in latency
